Results taken from the supplement of paper PMC10307832.

Columns and labels:
Experiment in all cases: relative viability (nuclei count vs DMSO), 5 days (fraction); higher = more cells survive
[1] = compound: C1=CC=C(C(=C1)C2=CC=C(C=C2)C3=CSC4=C3C(=C(C(=O)N4)C#N)O)O + CC(=O)c1c(C)c2cnc(Nc3ccc(N4CCNCC4)cn3)nc2n(C2CCCC2)c1=O [Palbociclib] (partner 0.5 µM)
Summary of the method: (§1)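 One day after seeding in 1536-well plates, lung cancer cell lines were dosed by pin tool. Dosing was either single-drug or a fixed anchor-drug dose plus five library-drug doses (not always all listed) in √10 steps. After 5 days, nuclei were stained in one fix-and-stain step and counted on 4× images, and relative viability is the nuclei count of treated wells over that of vehicle wells, given as the median of duplicate plates.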

[2] = compound: C1=CC=C(C(=C1)C2=CC=C(C=C2)C3=CSC4=C3C(=C(C(=O)N4)C#N)O)O + CS(=O)(=O)N1CCN(Cc2cc3nc(-c4cccc5[nH]ncc45)nc(N4CCOCC4)c3s2)CC1 [Pictilisib] (partner 1 µM)
Summary of the method: as §1

[3] = compound: O=C(CCCCCCNC(=O)c1cnc(N(c2ccccc2)c2ccccc2)nc1)NO [Ricolinostat] + C[C@]1(O)C[C@@H](c2nc(-c3ccc4ccc(-c5ccccc5)nc4c3)c3c(N)nccn32)C1 [Linsitinib] (partner 1 µM)
Summary of the method: as §1

[4] = compound: O=C(CCCCCCNC(=O)c1cnc(N(c2ccccc2)c2ccccc2)nc1)NO [Ricolinostat] + CC1(C)CCC(c2ccc(Cl)cc2)=C(CN2CCN(c3ccc(C(=O)NS(=O)(=O)c4ccc(N[C@H](CCN5CCOCC5)CSc5ccccc5)c(S(=O)(=O)C(F)(F)F)c4)cc3)CC2)C1 [Navitoclax] (partner 0.5 µM)
Summary of the method: as §1

Cell Line | relative viability ([1]; first compound 0.08 µM) | relative viability ([1]; first compound 0.253 µM) | relative viability ([1]; first compound 0.8 µM) | relative viability ([1]; first compound 2.53 µM) | relative viability ([1]; first compound 8 µM) | relative viability ([2]; first compound 0.08 µM) | relative viability ([2]; first compound 0.253 µM) | relative viability ([2]; first compound 0.8 µM) | relative viability ([2]; first compound 2.53 µM) | relative viability ([2]; first compound 8 µM) | relative viability ([3]; first compound 0.08 µM) | relative viability ([3]; first compound 0.253 µM) | relative viability ([3]; first compound 0.8 µM) | relative viability ([3]; first compound 2.53 µM) | relative viability ([4]; first compound 0.08 µM) | relative viability ([4]; first compound 0.253 µM) | relative viability ([4]; first compound 0.8 µM) | relative viability ([4]; first compound 2.53 µM)
NCI-H2087 | 0.223 | 0.228 | 0.199 | 0.256 | 0.205 | 0.783 | 0.892 | 0.956 | 0.848 | 0.772 | 0.896 | 0.986 | 1.01 | 0.847 | 0.96 | 1.04 | 1.02 | 1.04
NCI-H522 | 0.943 | 1.06 | 0.916 | 0.944 | 0.881 | – | – | – | – | – | – | – | – | – | – | – | – | –
NCI-H1666 | 0.63 | 0.669 | 0.637 | 0.641 | 1.02 | 0.321 | 0.572 | 0.404 | 0.29 | 0.405 | 0.799 | 0.806 | 0.745 | 0.468 | 0.909 | 1.12 | 0.816 | 0.471
NCI-H1915 | 0.587 | 0.558 | 0.554 | 0.756 | 0.515 | 0.926 | 1.05 | 0.784 | 0.927 | 0.884 | 1.01 | 1.04 | 1.02 | 1.01 | 0.797 | 0.746 | 0.778 | 0.712
RERF-LC-KJ | 1.01 | 1.18 | 1.11 | 1.29 | 1.04 | 0.576 | 0.538 | 0.567 | 0.466 | 0.493 | 0.952 | 0.77 | 0.897 | 0.824 | 0.831 | 0.993 | 0.841 | 0.787
NCI-H520 | 0.235 | 0.212 | 0.223 | 0.226 | 0.206 | 0.185 | 0.277 | 0.323 | 0.319 | 0.295 | – | 0.991 | 1.02 | 0.869 | – | 1.11 | 1.01 | 1.02
NCI-H2085 | 0.468 | 0.573 | 0.435 | 0.49 | 0.472 | 0.414 | 0.517 | 0.528 | 0.418 | 0.399 | – | 0.868 | 0.922 | 0.865 | – | 1.14 | 1 | 0.947
LCLC-103H | 0.445 | 0.407 | 0.451 | 0.491 | 0.449 | 0.544 | 0.664 | 0.541 | 0.554 | 0.576 | 0.925 | 1.06 | 1.09 | 1.11 | – | – | – | –
NCI-H2342 | 0.538 | 0.513 | 0.538 | 0.488 | 0.529 | – | – | – | – | – | – | – | – | – | – | – | – | –
Calu-6 | – | – | – | – | – | 0.959 | 0.967 | 1.05 | 0.988 | 0.812 | 0.817 | 0.89 | 0.891 | 0.766 | 0.801 | 0.852 | 0.803 | 0.783
A549 | – | – | – | – | – | 0.322 | 0.552 | 0.539 | 0.516 | 0.422 | – | 0.533 | 0.538 | 0.562 | 1.07 | 1.18 | 1.1 | 1.21
ABC-1 | 0.615 | 0.921 | 0.804 | 0.591 | 0.433 | 0.678 | 0.881 | 0.949 | 0.59 | 0.548 | 0.616 | 0.772 | 0.944 | 0.669 | – | – | – | –
NCI-H1703 | – | – | – | – | – | 0.236 | 0.292 | 0.25 | 0.259 | 0.24 | – | 0.669 | 0.774 | 0.956 | – | 0.978 | 1.05 | 1.54
NCI-H1299 | – | – | – | – | – | 1.04 | 0.858 | 0.826 | 0.771 | 0.594 | 0.984 | 0.898 | 0.959 | 0.74 | 0.987 | 0.987 | 1.02 | 1.01
NCI-H2170 | 0.349 | 0.407 | 0.404 | 0.434 | 0.329 | 0.337 | 0.304 | 0.273 | 0.3 | 0.358 | – | – | – | – | 0.607 | 0.495 | 0.633 | 0.662
ChaGo-K-1 | 0.839 | 0.913 | 1.01 | 1.01 | 0.836 | 0.387 | 0.634 | 0.554 | 0.747 | 0.829 | – | – | – | – | 1.11 | 1.11 | 0.888 | 0.953
NCI-H358 | 0.13 | 0.17 | 0.124 | 0.135 | 0.123 | 0.415 | 0.344 | 0.329 | 0.342 | 0.414 | 0.513 | 0.782 | 0.808 | 0.763 | – | – | – | –
EBC-1 | – | – | – | – | – | 0.353 | 0.429 | 0.346 | 0.343 | 0.368 | 0.737 | 0.713 | 0.911 | 0.328 | 0.375 | 0.358 | 0.304 | 0.172
NCI-H596 | – | – | – | – | – | 0.178 | 0.407 | 0.395 | 0.373 | 0.378 | 1.09 | 1.05 | 1 | 1.09 | 0.951 | 0.954 | 0.858 | 0.887
NCI-H1650 | 0.23 | 0.332 | 0.317 | 0.31 | 0.31 | – | 0.855 | 0.681 | 0.53 | 0.501 | – | – | – | – | 0.948 | 1.19 | 1.12 | 0.82
NCI-H1648 | – | 0.282 | 0.319 | 0.261 | 0.274 | – | – | – | – | – | – | – | – | – | – | – | – | –
SW 900 | – | 0.621 | 0.638 | 0.518 | 0.429 | – | – | – | – | – | – | – | – | – | – | – | – | –
IA-LM | – | – | – | – | – | 0.273 | 0.452 | 0.287 | 0.369 | 0.238 | 0.335 | 0.529 | 0.594 | 0.259 | 0.802 | 0.626 | 0.747 | 0.603
NCI-H661 | 0.426 | 0.419 | 0.392 | 0.394 | 0.391 | 0.331 | 0.425 | 0.333 | 0.39 | 0.349 | – | 0.53 | 0.792 | 0.779 | – | – | – | –
